Laboratory results as given in US4663438A, “Novel nucleic acid-containing glycoprotein” (Kureha Kagaku Kogyo Kabushiki Kaisha, priority 1981, dated 1987).

Tested on: sarcoma-180 cells
Experiment: Inhibition by monosaccharide of agglutination of sarcoma-180 cells due to the present substance
Format: cell-based, mouse
Details: present substance 3 mg with monosaccharide 1.5 mg, 30 min, 37° C.; blank test 18
Description: (ii) Test on the inhibition by monosaccharide of agglutination of sarcoma-180 cells due to the present substance
The same specimen of sarcoma-180 cells suspending in 0.5 ml of Hanks' solution at a rate of 1×10^6 cells/ml as in Test (i) and each 0.5 ml of the physiological saline solution containing 3 mg of the present substance and 1.5 mg of the respective monosaccharides set forth below, which was incubated for 30 min. at 37° C., then discarding the supernatant medium and washing the residue with Hanks' solution, the remaining residue was examined under a microscope to count the number of agglutinated lumps of the cells.

Compared with `O=C[C@H](O)[C@@H](O)[C@@H](O)[C@H](O)CO` [D-galactose], `C[C@H](O)[C@@H](O)[C@@H](O)[C@H](O)C=O` [L-fucose] is lower in “Number of agglutinated lumps” value: 118 for the first, 27 for the second.

Compared with `C[C@H](O)[C@H](O)[C@@H](O)[C@@H](O)C=O` [L-rhamnose], `CC(=O)N[C@@H]1[C@@H](O)[C@H](O)[C@@H](CO)O[C@H]1O` [N--acetylglucosamine] is higher in “Number of agglutinated lumps” value: 25 for the first, 85 for the second.

Going from `CO[C@H]1O[C@H](CO)[C@@H](O)[C@H](O)[C@H]1O` [methyl α-glucoside] to `COC1OC(CO)C(O)C(O)C1O` (stereo not drawn) [methyl α-mannoside], the “Number of agglutinated lumps” value falls from 115 to 35.
